Tests used:
[1] = system: Tremor Model of Mice Induced by Agonist of Cholinergic M-Receptor: Arecaline; conditions: mouse, in vivo, po
[2] = system: Rigidity Model of Mouse Induced By Haloperidol; conditions: in vivo, po

OC(CCN1CCCCC1)(c1ccccc1)C1CCCCC1 (centres unmarked) [Benzhexol]
ED50 + L95 [1]: 8.82 ± 0.83 mg/kg | ED50 + L95 [2]: 19.56 ± 1.44 mg/kg
